Test results taken from patent US11434225B2, “Salts and solid state forms of plinabulin” (PLIVA HRVATSKA D.O.O., priority 2017, dated 2022).

Settings: solid state form

For CC(C)(C)c1[nH]cnc1/C=c1\[nH]c(=O)/c(=C/c2ccccc2)[nH]c1=O [Plinabulin Form G], the “stability upon exposure to humidity” value (upon exposure to humidity) was “shows stability” and the stability upon heating (upon heating) was “shows stability”.
